Reference: patent publication US20200000873A1, “METHODS FOR IMPROVING THE COGNITIVE FUNCTIONS OF A SUBJECT” (The Regents of the University of California, priority 2017, published 2020)

What was measured:
Brown Norway rats [1] = test: Probabilistic reversal learning task (PRLT) after long-term (21 days) administration of oxytocin; assay type: in vivo, rat
Text: (§1) Probabilistic learning, an aspect of executive function, can be assessed in rodents using a probabilistic reversal learning task (PRLT). A PRLT is typically a 1-hour test using two recessed lights in the back of the operant chamber as stimuli (see, FIGS. 2, 3 and 4). After illumination and subsequent extinguishing of the magazine light via nose-poke, a 2 second inter-trial interval occurs, which is then immediately followed by a 10 second period during which two apertures are illuminated wherein the rat can respond via nose-poke. One of the two stimuli is designated the target stimulus, and responses to it are rewarded more frequently (e.g., rewarded 80% of the time) (aperture light extinguished and reward delivered into the magazine) and punished less frequently (e.g., 20% of the time) (aperture light extinguished and house light illuminated for a 4-second timeout period during which no reward was delivered). The other stimulus was designated the non-target stimulus, to which responses are rewarded less frequently (e.g., 20% of the time) and punished more frequently (80% of the time). Initial target and non-target locations are alternated among the testing chambers such that the first target of the session is, for example, the left light in four of the eight chambers, and the right in the others. […] After first criterion acquisition, the target and non-target locations are reversed. The subject then has to recognize that this change, or “switch,” had occurred and adjust its responses accordingly. After another 8 consecutive correct responses, the ratios are switched again. This pattern is repeated for the remainder of the 1-hour session. The number of switches the subject is able to complete within the testing period was the primary outcome variable of PRLT to measure reversal learning. An additional primary outcome measure, trials to first criterion, provided a measure of initial reinforcement learning without the confound of reversal learning included.
(§2) Several latency measures included mean target latency (millisecond (ms) to respond in the target stimulus), mean non-target latency (ms to respond in the non-target stimulus), and mean reward latency (ms to collect the reward).
(§3) Rats (Brown Norway rats or Long Evans rats) executive function was tested using a nine-choice operant box (e.g., see FIG. 2). The nine-choice operant box has nine depressions in which a rat can poke its nose into (see FIG. 2), where each depression comprises a light emitting diode (LED). A rat was placed in the box and two of the LEDs were illuminated (e.g., see FIG. 3). One LED, the ‘target’, rewarded a rat's nose poke 80% of the time with food while the other LED, the ‘nontarget’, rewarded a rat's nose poke only 20% of the time. After eight consecutive responses in which the ‘target’ LED was selected, the reward ratios for the two LED's were switched, and the next block of testing was begun. Brown Norway rats were used as test subjects while Long Evans rats were used as controls.
(§4) Scoring of executive function was based on the number of switches a rat was able to complete within a one-hour test period, as well as the number of block changes a rat can progress through. In particular, the scoring and conclusions of executive function were made as follows:
(§5) A primary measure of executive function. The number of times the ‘target’ stimulus switches following eight consecutive “correct” responses by the subject. The number of switches a rat is able to complete within a one-hour test period indicates how quickly the rat is able to detect and adjust to reversals. The more switches completed by the rat, the better the executive function of the rat.
(§6) A primary measure of executive function. Indicates how quickly rat was able to progress through the blocks—the block changes whenever the target switches, so if the subject completed five blocks and is working on the sixth when the one hour testing session ends. […]

Brown Norway rats [2] = test: Probabilistic reversal learning task (PRLT), single (acute) administration of oxytocin; assay type: in vivo, rat
Text: as §1, §2, §3, §4, §5, §6

humans = humans treated with oxytocin, reported; cited from earlier work
[3] = oxytocin 1.00 mg/kg, Brown Norway rats

CC[C@H](C)[C@@H]1NC(=O)[C@H](Cc2ccc(O)cc2)NC(=O)[C@@H](N)CSSC[C@@H](C(=O)N2CCC[C@H]2C(=O)N[C@@H](CC(C)C)C(=O)NCC(N)=O)NC(=O)[C@H](CC(N)=O)NC(=O)[C@H](CCC(N)=O)NC1=O [oxytocin]
trials to first criterion (Brown Norway rats [1]; 1 mg/kg OT vs. vehicle in BN rats, long-term administration): appears to reduce | number of switches in the PRLT (Brown Norway rats [1]; BN rats previously treated with 0.04 mg/kg OT compared with LE rats): LE rats exhibited more switches | number of switches in the PRLT (Brown Norway rats [1]; BN rats previously treated with 0.2 mg/kg OT compared with LE rats): LE rats exhibited more switches | number of switches in the PRLT (Brown Norway rats [1]; BN rats treated with 1 mg/kg OT vs. vehicle-treated BN rats, long-term administration): significantly more switches | executive function after discontinuation of OT (Brown Norway rats [1]; BN rats, 1.0 mg/kg OT for 21 days, tested approximately one week or more after discontinuation): persistent improvement | time post treatment at which improvement of executive function was seen (Brown Norway rats [1]; [3]): 7 days | executive function, effect of dose (Brown Norway rats [2]; BN rats, 1.00 mg/kg vs. lower doses 0.04 mg/kg and 0.20 mg/kg): dose dependent | number of switches in the PRLT (Brown Norway rats [2]; acute OT 0.04 mg/kg, BN rats vs. vehicle-treated LE rats): fewer switches | total trials to initial criterion (Brown Norway rats [2]; acute OT 1 mg/k/g, BN rats vs. both vehicle-treated BN and LE rats): reduced | total number of switches completed in the PRLT (Brown Norway rats [2]; acute OT 1 mg/kg, BN rats vs. vehicle): increased | probabilistic learning of subjects (Brown Norway rats [2]; administration of oxytocin): significantly improved | improvement in executive function (Brown Norway rats [2]; [3]): significant | number of switches (Brown Norway rats [2]; oxytocin administered to Brown Norway rats, dose not stated): increased | executive function of the animal subjects (Brown Norway rats [2]; oxytocin administered to animal subjects): significantly improved | cognitive performance and memory (humans): Impairments
